Measured values published in PubChem BioAssay (NCI).
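Following 48 hours of exposure in 96-well plates, responses at five concentrations were used to interpolate endpoints linearly. The concentration for 50% growth inhibition is given as GI50. Definition used: TGI = concentration required for complete inhibition of growth.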

Key:
Assay in all cases: inhibition of tumour cell growth, NCI panel, 48 h
[1] = system: MDA-MB-468 breast
[2] = system: CAKI-1 renal
[3] = system: MOLT-4 leukemia
[4] = system: SNB-75 CNS
[5] = system: IGROV1 ovarian
[6] = system: SK-MEL-2 melanoma
[7] = system: MCF7 breast
[8] = system: KM12 colon
[9] = system: SN12C renal
[10] = system: K-562 leukemia
[11] = system: OVCAR-8 ovarian
[12] = system: NCI-H226 lung
[13] = system: HOP-62 NSCLC
[14] = system: HCT-116 colon
[15] = system: T-47D breast
[16] = system: SF-268 CNS
[17] = system: M14 melanoma
[18] = system: LOX IMVI melanoma
[19] = system: COLO 205 colon
[20] = system: UO-31 renal
[21] = system: BT-549 breast
[22] = system: SF-295 CNS
[23] = system: DU-145 prostate
[24] = system: A549 NSCLC
[25] = system: SK-MEL-5 melanoma
[26] = system: HCT-15 colon
[27] = system: PC-3 prostate
[28] = system: UACC-62 melanoma
[29] = system: CCRF-CEM leukemia
[30] = system: HT29 colon
[31] = system: RXF 393 renal
[32] = system: 786-0 renal
[33] = system: NCI/ADR-RES ovarian
[34] = system: ACHN renal
[35] = system: NCI-H460 lung
[36] = system: MDA-MB-435
[37] = system: HS 578T breast
[38] = system: SF-539 CNS
[39] = system: SW-620 colon
[40] = system: OVCAR-5 ovarian
[41] = system: MALME-3M melanoma
[42] = system: EKVX NSCLC
[43] = system: OVCAR-4 ovarian
[44] = system: SK-MEL-28 melanoma
[45] = system: MDA-MB-231 breast
[46] = system: OVCAR-3 ovarian
[47] = system: HOP-92 NSCLC
[48] = system: HL-60(TB) leukemia
[49] = system: UACC-257 melanoma
[50] = system: NCI-H23 lung
[51] = system: TK-10 renal
[52] = system: RPMI-8226 leukemia
[53] = system: A498 renal
[54] = system: SNB-19 CNS
[55] = system: U251 CNS
[56] = system: SK-OV-3 ovarian
[57] = system: HCC-2998 colon
[58] = system: NCI-H522 lung

COc1ccc(/C=C/c2nc(NCCCN(C)C)c3ccccc3n2)cc1
GI50 [1]: 1.31 µM
TGI [1]: 2.64 µM

COC1CC2C=C(C)/C=C/C=C/C(=O)NC(c3ccccc3)C/C=C/CCC(O)CC(=O)C2=C1O (centres undefined)
GI50 [1]: 0.283 µM
TGI [1]: 1.24 µM

NC1CCN(c2nc(Nc3cccc(C(F)(F)F)c3)c3c(=O)[nH]ccc3n2)CC1
GI50 [1]: 1.49 µM
TGI [1]: 2.98 µM

Cc1cccc(-c2nc(Nc3ccc(C)c(S(N)(=O)=O)c3)c3ccccc3n2)c1
GI50 [2]: 5.78 µM
TGI [2]: 21.8 µM
GI50 [3]: 3.73 µM
TGI [3]: 33.8 µM
GI50 [4]: 13.1 µM
TGI [4]: 52 µM
GI50 [5]: 10.3 µM
TGI [5]: 32.7 µM
GI50 [6]: 11.4 µM
TGI [6]: 32.1 µM
GI50 [7]: 3.16 µM
TGI [7]: 12.9 µM
GI50 [8]: 3.32 µM
TGI [8]: > 100 µM
GI50 [9]: 11.5 µM
TGI [9]: 28.2 µM
GI50 [10]: 3.47 µM
TGI [10]: 19 µM
GI50 [11]: 9.17 µM
TGI [11]: 43.4 µM
GI50 [12]: 11.6 µM
TGI [12]: 35.1 µM
GI50 [13]: 11 µM
TGI [13]: 26.6 µM
GI50 [14]: 5.84 µM
TGI [14]: 19.6 µM
GI50 [15]: 3.61 µM
TGI [15]: 16.7 µM
GI50 [16]: 11.8 µM
TGI [16]: > 100 µM
GI50 [17]: 9.55 µM
TGI [17]: 21.3 µM
GI50 [1]: 4.07 µM
TGI [1]: 16.5 µM
GI50 [18]: 3.31 µM
TGI [18]: 12.5 µM
GI50 [19]: 7.07 µM
TGI [19]: 19.8 µM
GI50 [20]: 5.57 µM
TGI [20]: 27.1 µM
GI50 [21]: 15.8 µM
TGI [21]: 63.5 µM
GI50 [22]: 2.61 µM
TGI [22]: 8.28 µM
GI50 [23]: 13.1 µM
TGI [23]: 69.2 µM
GI50 [24]: 6.51 µM
TGI [24]: 32.8 µM
GI50 [25]: 11 µM
TGI [25]: 24.7 µM
GI50 [26]: 3.07 µM
TGI [26]: 10.8 µM
GI50 [27]: 4.09 µM
TGI [27]: 55.4 µM
GI50 [28]: 13.6 µM
TGI [28]: 30.2 µM
GI50 [29]: 4.11 µM
TGI [29]: 25.8 µM
GI50 [30]: 4.67 µM
TGI [30]: 18.8 µM
GI50 [31]: 3.3 µM
TGI [31]: 11 µM
GI50 [32]: 5.68 µM
TGI [32]: 17.8 µM
GI50 [33]: 5.6 µM
TGI [33]: 35.9 µM
GI50 [34]: 4.8 µM
TGI [34]: 21 µM
GI50 [35]: 3.94 µM
TGI [35]: 25 µM
GI50 [36]: 10.5 µM
TGI [36]: 67.3 µM
GI50 [37]: 10.4 µM
TGI [37]: 61.1 µM
GI50 [38]: 7.78 µM
TGI [38]: 27 µM
GI50 [39]: 6.44 µM
TGI [39]: 24 µM
GI50 [40]: 12.4 µM
TGI [40]: 27.4 µM
GI50 [41]: 13.9 µM
TGI [41]: 32.1 µM
GI50 [42]: 6.18 µM
TGI [42]: 24.1 µM
GI50 [43]: 8.5 µM
TGI [43]: > 100 µM
GI50 [44]: 11.4 µM
TGI [44]: 28.8 µM
GI50 [45]: 4.04 µM
TGI [45]: 17.5 µM
GI50 [46]: 9.36 µM
TGI [46]: > 100 µM
GI50 [47]: 6.46 µM
TGI [47]: 27.2 µM
GI50 [48]: 4.67 µM
TGI [48]: 61.5 µM
GI50 [49]: 18.3 µM
TGI [49]: 51.4 µM
GI50 [50]: 13.3 µM
TGI [50]: 33.5 µM
GI50 [51]: 15.3 µM
TGI [51]: 41.9 µM
GI50 [52]: 4.38 µM
TGI [52]: 35 µM
GI50 [53]: 8.25 µM
TGI [53]: 25.8 µM
GI50 [54]: 10.5 µM
TGI [54]: 53 µM
GI50 [55]: 8.08 µM
TGI [55]: 34.2 µM
GI50 [56]: 17.6 µM
TGI [56]: 47.8 µM
GI50 [57]: 3.1 µM
TGI [57]: 10.8 µM
GI50 [58]: 2.72 µM
TGI [58]: 7.93 µM

CCCCCCCCCCN(CCCCCCCCCC)CC(=O)c1ccc2cc(Br)c3ccccc3c2c1
GI50 [1]: 1.7 µM
TGI [1]: 3.14 µM

CN(C)CCCN1c2nc3ccccc3cc2Sc2cc3ccccc3nc21
GI50 [1]: 1.65 µM
TGI [1]: 4.44 µM

Cc1nc2sc(C(=O)Nc3cccc4ccccc34)c(N)c2cc1C(=O)c1ccccc1
GI50 [1]: 1.66 µM
TGI [1]: > 50 µM

O=C(Nc1ccc(F)cc1)c1c(NC(=O)C(F)(F)F)sc2c1CCCCC2
GI50 [1]: 1.04 µM
TGI [1]: 4.85 µM

CC/C=C\C[C@H](O)C/C=C1/C(=O)C=C[C@@H]1C/C=C\CCCC(=O)N(C)C
GI50 [1]: 1.43 µM
TGI [1]: 3.38 µM

COc1ccc(-c2cc(/C=C3\C(=O)Nc4ccc(Cl)cc43)[nH]n2)cc1
GI50 [1]: 3.6 µM
TGI [1]: 13.5 µM

N=C(N=C(N)N)N1CCN(c2ccncc2)CC1
GI50 [1]: > 1000 µM
TGI [1]: > 1000 µM

Cc1cc(CNC(=O)OCc2ccccc2)c(C)c2c1Oc1ccccc1O2
GI50 [1]: 95.6 µM
TGI [1]: > 100 µM

CC(C)c1ccc(C(=O)Nc2sc3c(c2C#N)CCC(=O)C3)cc1
GI50 [1]: 0.389 µM
TGI [1]: 2.4 µM

ClC(Cl)c1nc(-c2cccnc2)n2nc(-c3ccccc3)cc2n1
GI50 [1]: 0.247 µM
TGI [1]: 0.793 µM

OCC1OC(n2ccc3c(NO)ncnc32)C(O)C1O (centres undefined)
GI50 [1]: 0.122 µM
TGI [1]: 0.777 µM

NNc1cccc(/C=C/c2ccccc2)cc1=O
GI50 [1]: 8.46 µM
TGI [1]: 90.7 µM

COC(=O)c1c2c(c(C)[n+]([O-])c1C)C(=O)C=C(NCc1ccc(F)c(F)c1)C2=O
GI50 [1]: 0.242 µM
TGI [1]: 0.705 µM

CC(=O)[C@@H]1CCC=C2CC[C@]3(C)[C@@H](CC[C@@H]4[C@@]5(C)CCCNC(C)(C)[C@@H]5CC[C@]43C)[C@H]21
GI50 [1]: 1.78 µM
TGI [1]: 3.43 µM

NC(=O)c1cc(Br)cc(C2CCCCC2)c1O
GI50 [1]: 13.8 µM
TGI [1]: 29.2 µM

CCOC(=O)c1[nH]c(-c2ccc(Cl)cc2)cc1-c1cccnc1
GI50 [1]: 0.493 µM
TGI [1]: 4.33 µM

C=C1C(=O)O[C@H]2[C@H]1CC/C(COC(=O)NCc1ccc(Cn3c(=O)sn(CCCCl)c3=O)cc1)=C\CC[C@@]1(C)O[C@@H]21
GI50 [1]: 1.53 µM
TGI [1]: 4.33 µM

COc1cc(/C=C\[N+](=O)[O-])ccc1OCc1ccccc1
GI50 [1]: 1.47 µM
TGI [1]: 3.26 µM

N#Cc1cnc2cc(OC[C@@H](O)CO)c(NC(=O)CC3CSSC3)cc2c1Nc1ccc(OCc2cccc(F)c2)c(Cl)c1
GI50 [1]: 0.0698 µM
TGI [1]: 0.155 µM

O=c1nc(Nc2cccc(Cl)c2)oc2cc(Cl)oc(=O)c12
GI50 [1]: 2.44 µM
TGI [1]: 6.75 µM

CCN1C(=S)N(CC)C2C1NC(=S)N2/N=C/C=C/c1ccccc1 (centres undefined)
GI50 [1]: 0.458 µM
TGI [1]: 4.19 µM

COCCOC(=O)NC(=O)Nc1ccc(/C(=N/O)c2ccc(Cl)cc2)cc1
GI50 [1]: 0.0813 µM
TGI [1]: 0.616 µM

CC1=C[C@H]2c3c(c(O)c(O)c4oc5ccccc5c(=O)c34)[C@H](c3cc(O)c(O)c4oc5ccccc5c(=O)c34)[C@H]2C(C)(C)C1
GI50 [1]: 2.02 µM
TGI [1]: 6.04 µM

Nc1nnc2cc(Cl)ccc2n1
GI50 [1]: > 100 µM
TGI [1]: > 100 µM

Cn1c(=O)c(Oc2ccccc2F)cc2cnc(NC3CCOCC3)nc21
GI50 [1]: > 25 µM
TGI [1]: > 25 µM

Clc1ccc2[nH]cc(-c3nc(-c4c[nH]c5ncccc45)cs3)c2c1
GI50 [1]: 2.62 µM
TGI [1]: 9.41 µM

O=C(c1ccc2ncc(-c3nc(NC4CC4)ncc3F)n2c1)N1CCOCC1
GI50 [1]: 1.79 µM
TGI [1]: 4.34 µM

CCOC(=O)C(=Cc1ccccc1[N+](=O)[O-])C(=O)OCC
GI50 [1]: 1.53 µM
TGI [1]: 4.68 µM

O=[N+]([O-])c1ccc(N/N=C/c2c(O)ccc3ccccc23)nc1
GI50 [1]: 4.47 µM
TGI [1]: 49.4 µM

Cc1cc(C)c(C[N+](C)(C)C)c(C)c1C
GI50 [1]: 0.495 µM
TGI [1]: 9.2 µM

COc1ccc2c(Nc3ccc(NS(C)(=O)=O)cc3)c3ccccc3nc2c1
GI50 [1]: 0.414 µM
TGI [1]: 1.74 µM
